From PMC9370035, “Identification of 3-Oxindole Derivatives as Small Molecule HIV-1 Inhibitors Targeting Tat-Mediated Viral Transcription” (Molecules, 2022)

Columns and labels:
HIV-1NL4-3 [1] = assay: HIV-1 infectivity assay in TZM-bl cells (F-Luc under HIV-1 LTR); assay type: cell-based; settings: Human immunodeficiency virus 1, NL43, TZM-bl; for inhibition at 3 µM: 48 h, read-out: Inhibition of HIV-1 Infectivity (%), TZM-bl cells, 3 μM, HIV-1 NL4-3 at MOI of 1, 48 h; for IC50: read-out: IC50 (inhibition of HIV-1 infection)
Description: TZM-bl cells (also referred as JC53BL-13) expressing human CD4, CXCR4, and CCR5 in order to facilitate HIV-1 infection, which contain the firefly luciferase (F-Luc) gene under the control of HIV-1 long terminal repeat (LTR) promoter was used to determine inhibitory effect of the compounds on HIV-1 infection, as described previously with minor modifications. […] Without replacement of a culture medium, the cells were then infected with the HIV-1NL4-3 strain at a multiplicity of infection (MOI) of 1 to determine the exact inhibitory effect of compounds on a single round infection. After 48 h, the inhibitory effect of the compounds was determined using a Bright Glo luciferase assay kit (Promega). The infectivity data are presented as a percentage relative to the DMSO control (vehicle). The inhibitory effects of the compounds on viral replication were determined with some minor modifications, as described previously. […] PBMCs were pre-activated with phytohemagglutinin M (PHA-M) for 3 days. The pre-activated 4 × 10^5 of PBMCs were washed with fresh media to remove excess PHA-M and then infected with HIV-1NL4-3 or HIV-1AD8 as that of A3.01 infection.

Tat = assay: Nuclear localization of Tat; assay type: cell-based, HIV-1; settings: manuscript in preparation [26]
HIV-1NL4-3 [2] = assay: HIV-1 replication assay (p24 […]) in A3.01 T cell line; assay type: cell-based; settings: A3.01 cells, HIV-1NL4-3 MOI 0.1, 1.5 μM, 72 h
Procedure: (§1) TZM-bl cells (also referred as JC53BL-13) expressing human CD4, CXCR4, and CCR5 in order to facilitate HIV-1 infection, which contain the firefly luciferase (F-Luc) gene under the control of HIV-1 long terminal repeat (LTR) promoter was used to determine inhibitory effect of the compounds on HIV-1 infection, as described previously with minor modifications. In brief, 1 × 10^4 cells were cultured in 96-well plates for 24 h and then treated with compounds at a final concentration of 3 μM (Figure 1A) or with 1:2 serially diluted compounds at concentrations ranging from 0 to 25 μM (dose-response assay; Figure 1B and Table 2). Without replacement of a culture medium, the cells were then infected with the HIV-1NL4-3 strain at a multiplicity of infection (MOI) of 1 to determine the exact inhibitory effect of compounds on a single round infection. After 48 h, the inhibitory effect of the compounds was determined using a Bright Glo luciferase assay kit (Promega). The infectivity data are presented as a percentage relative to the DMSO control (vehicle). The inhibitory effects of the compounds on viral replication were determined with some minor modifications, as described previously. In brief, 5 × 10^4 cells/ well of A3.01 cells were infected with HIV-1NL4-3 at an MOI of 0.1 with the spinoculation at 300 g for 2 h at 25 °C. PBMCs were pre-activated with phytohemagglutinin M (PHA-M) for 3 days. The pre-activated 4 × 10^5 of PBMCs were washed with fresh media to remove excess PHA-M and then infected with HIV-1NL4-3 or HIV-1AD8 as that of A3.01 infection. After infection, the infectious media were replaced with fresh media (supplemented with international 10 units (IU)/mL of IL-2 for PBMCs containing 1.5 μM of compounds. At 72 h after infection, the inhibitory effect of the compounds on viral replication was determined by measuring the amount of p24, an HIV capsid protein, using an HIV-1 p24 […]™ kit (PerkinElmer, Waltham, MA, USA). Cell viability was determined by using the resazurin-based PrestoBlue™ cell viability reagent (Thermo Fisher Scientific, Waltham, MA, USA) according to the manufacturer’s protocols.

HIV-1Ad8 = assay: HIV-1 replication assay (p24 […]) in PBMCs, CCR5 tropic strain; assay type: cell-based; settings: CCR5 tropic HIV-1Ad8 MOI 0.1, 1.5 μM, 72 h
Procedure: TZM-bl cells (also referred as JC53BL-13) expressing human CD4, CXCR4, and CCR5 in order to facilitate HIV-1 infection, which contain the firefly luciferase (F-Luc) gene under the control of HIV-1 long terminal repeat (LTR) promoter was used to determine inhibitory effect of the compounds on HIV-1 infection, as described previously with minor modifications. In brief, 1 × 10^4 cells were cultured in 96-well plates for 24 h and then treated with compounds at a final concentration of 3 μM (Figure 1A) or with 1:2 serially diluted compounds at concentrations ranging from 0 to 25 μM (dose-response assay; Figure 1B and Table 2). Without replacement of a culture medium, the cells were then infected with the HIV-1NL4-3 strain at a multiplicity of infection (MOI) of 1 to determine the exact inhibitory effect of compounds on a single round infection. After 48 h, the inhibitory effect of the compounds was determined using a Bright Glo luciferase assay kit (Promega). The infectivity data are presented as a percentage relative to the DMSO control (vehicle). The inhibitory effects of the compounds on viral replication were determined with some minor modifications, as described previously. In brief, 5 × 10^4 cells/ well of A3.01 cells were infected with HIV-1NL4-3 at an MOI of 0.1 with the spinoculation at 300 g for 2 h at 25 °C. PBMCs were pre-activated with phytohemagglutinin M (PHA-M) for 3 days. […]

Tat and cyclin T1 = Tat and cyclin T1 (Human immunodeficiency virus type 1 group M subtype B, UniProt P04608); assay: Interaction between Tat and cyclin T1; settings: manuscript in preparation [26]
[3] = Cell viability (resazurin-based PrestoBlue) in parallel with infectivity assay; settings: human, TZM-bl cells; for viability at 48 h, 3 µM: with infection of HIV-1 NL4-3 at MOI of 1; for CC50 at 48 h: serial dilution starting from 100 μM, read-out: CC50 (concentration that reduces cell viability by 50%)
TZM-bl cells = assay: as above; settings: 3 μM, with infection of HIV-1 NL4-3 at MOI of 1
HIV-1NL4-3 [4] = assay: HIV-1 replication assay (p24 […]) in PBMCs, CXCR4 tropic strain; assay type: cell-based; settings: HIV-1NL4-3 MOI 0.1, 1.5 μM, 72 h
Procedure: as §1

Tat protein = assay: Cellular expression level of Tat protein; assay type: cell-based, HIV-1; settings: manuscript in preparation [26]
[5] = system: Tat-mediated HIV-1 transcription; assay: microbe, parasite or virus in culture; assay type: cell-based; settings: for IC50: Human immunodeficiency virus 1, 24 h, read-out: IC50 (inhibition of Tat-mediated HIV-1 transcription)
Procedure: (§2) bl-DTR (TZM-bl-derived dual Tat reporter) cells derived from TZM-bl cells by insertion of two doxycycline-inducible lentiviral vector-expressing flag-tagged tat and Renilla-luciferase (R-Luc) genes were used to determine simultaneously both activities of Tat-mediated HIV-1 transcription and general cellular transcription, as described previously. Determination of the inhibitory effect of the compounds on Tat-mediated transcription was performed as described previously. In brief, 1 × 10^4 of bl-DTR cells cultured in 96-well plates were treated with compounds at a final concentration of 3 μM (Figure 3C) or with 1:2 serially diluted compounds at concentrations ranging from 0 to 25 μM (Figure 4 and Table 3). Subsequently, doxycycline was treated at a final concentration of 50 ng/mL to induce Tat-mediated F-Luc and R-Luc. At 24 h after treatment, the activities of F-Luc and R-Luc were determined by using a Dual-Glo™ luciferase assay system (Promega, Madison, WI, USA) according to the manufacturer’s protocols. The data are presented as a percentage relative to the DMSO control (vehicle) in the presence of doxycycline, and the experiment was performed in triplicate.

Tat with TAR RNA = Tat with TAR RNA (Human immunodeficiency virus type 1 group M subtype B, UniProt P04608); assay: Association of Tat with TAR RNA; design: species or system HIV-1; settings: manuscript in preparation [26]
[6] = system: general cellular transcription; assay: R-Luc activity in bl-DTR cells (general cellular transcription); assay type: cell-based; settings: high dosages (12.5 μM and 25 μM)
Procedure: as §2

HIV-1 integrase = biological target: T1, HIV-1 integrase (Human immunodeficiency virus type 1 group M subtype B, UniProt P04585); assay: HIV-1 integrase assay kit; assay type: biochemical; settings: 10 μM
T1 construct: purchased XpressBio, Frederick, MD, USA
Procedure: The integrase activity was determined using an HIV-1 integrase assay kit (XpressBio, Frederick, MD, USA), according to the manufacturer’s protocols. In brief, a 96-well plate coated with donor substrate (DS) DNA was blocked with blocking buffer for 30 min at 37 °C. One hundred μL of HIV-1 integrase diluted with 1:300 onto reaction buffer was added to the plate, and the plate was then incubated for 30 min at 37 °C. Subsequently, 50 μL of compounds were added to the plate at final concentrations of 10 and 20 μM. At 5 min after addition of compounds, 50 μL of target substrate DNA diluted at 1:100 was added to the plate and incubated for 30 min at 37 °C. The plate was washed and then incubated with 100 μL of horse radish peroxidase antibody solution for 30 min at 37 °C. Integrase activity was assessed by measuring the peroxidase activity reacted with 3,3′,5,5′-tetramethylbenzidine substrate at optical density […]. The experiment was performed in triplicate.

[7] = biological target: HIV-1 reverse transcriptase (RTase) (Human immunodeficiency virus type 1 group M subtype B, UniProt P12497); settings: A3.01 cells, 10 μM, HIV-1NL4-3, 16 h after infection
Description: (forward) and 5′-[…] (reverse). […] (forward) and 5′-[…] (reverse).

Sequence of Tat and cyclin T1 (P04608 whole entry): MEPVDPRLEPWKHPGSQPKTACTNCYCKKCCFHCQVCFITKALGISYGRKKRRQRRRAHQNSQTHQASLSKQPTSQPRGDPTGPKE
Sequence of Tat with TAR RNA (P04608 whole entry): as above

SMILES	inhibition at 3 µM (HIV-1NL4-3 [1]) [%]	IC50 (HIV-1NL4-3 [1]) [µM]	Inhibition of nuclear localization of Tat (Tat)	Inhibitory effect on viral replication (p24) (HIV-1NL4-3 [2])	Inhibitory effect on viral replication (p24) (HIV-1Ad8)	melting point [°C]	Inhibition of interaction between Tat and cyclin T1 (Tat and cyclin T1)	viability at 48 h, 3 µM [3] [%]	CC50 at 48 h [3] [µM]	Inhibitory effect on viral replication (p24) (HIV-1NL4-3 [4])	Inhibition of cellular expression level of Tat protein (Tat protein)	IC50 [5] [µM]	Inhibition of association of Tat with TAR RNA (Tat with TAR RNA)	R-Luc activity [6]	Inhibition of integrase activity (HIV-1 integrase)	also measured
COC(=O)C1(C/C=C/Cl)Nc2cc(C)cc(C)c2C1=O (stereo not drawn) [Compound 6f, Methyl (E)-2-(3-chloroallyl)-4,6-dimethyl-3-oxindole-2-carboxylate]	91.9 ± 1.78	0.458 ± 0.0227	did not inhibit	near-complete abrogation	inhibited replication	> 300	did not inhibit	93 ± 5.39	51 ± 4.44	near-complete abrogation	did not inhibit	1.2 ± 0.04	did not inhibit			Cell Viability (%) (TZM-bl cells): without cytotoxicity; Concentration of complete inhibition of Tat-induced transcriptional activity ([5]; bl-DTR cells, concentration response): approximately 6 μM
COC(=O)C1(CC=C(Cl)Cl)Nc2cc(C)cc(C)c2C1=O (stereo not drawn) [Compound 6g, Methyl 2-(3,3-dichloroallyl)-4,6-dimethyl-3-oxindole-2-carboxylate]	85.4 ± 1.44	1.28 ± 0.959	did not inhibit	half inhibition	inhibited replication	> 300	did not inhibit	87.9 ± 0.82	43.6 ± 10.5	half inhibition	did not inhibit	2.85 ± 0.63	did not inhibit	decrease in R-Luc activity		
C[C@@H]1CCO[C@H]2Cn3cc(C(=O)NCc4ccc(F)cc4F)c(=O)c(O)c3C(=O)N12 [DOL, dolutegravir]															inhibited	
O=C1Nc2ccc(Cl)cc2[C@@](C#CC2CC2)(C(F)(F)F)O1 [EFV, efavirenz, reference compound]		< 0.05							34.2 ± 0.59							Inhibition of RTase activity (level of HIV-1 RT product) [7]: inhibited
Cc1nnc(C(=O)NC(C)(C)c2nc(C(=O)NCc3ccc(F)cc3)c(O)c(=O)n2C)o1 [RAL, raltegravir]															inhibited	
CC[C@H](CO)Nc1nc(NCc2ccccc2)c2ncn(C(C)C)c2n1 [seliciclib, Seliciclib, reference compound]														decrease in R-Luc activity		Tat-induced transcriptional activity (F-Luc) ([5]; bl-DTR cells, 3 μM, doxycycline 50 ng/mL, 24 h): specific inhibition
